We go through one compound from patent US10752612B2, “PLK4 inhibitors” (LUDWIG INSTITUTE FOR CANCER RESEARCH LTD, priority 2015, dated 2020).

One assay relates to panel of 19 cell lines. The experiment in a line: Proliferation after centrosome depletion, panel of cell lines. The settings on record: panel of 19 cell lines (Table 6). The class given is cell-based. Here is the method:
(§1) Proliferation assays. For each condition, cells were seeded in triplicate into 6-well plates at 50,000 cells/well. Compounds were added at the indicated concentrations. At 24-hour intervals, 3 wells were harvested per condition. Cell counting was performed using a TC10 automated cell counter (Bio-Rad). Results are from 3 independent experiments.

Another assay concerns the target T1, SRPK1 (Homo sapiens, UniProt Q96SB4).
T1 construct: Reaction Biology (Malvern, Pa.), contract assay
Description: Radiometric kinase assay, off-target SRPK1. The class given is biochemical. The settings on record: off-target from DiscoveRx kinome profiling. As to the method:
(§2) Aurora B and other radiometric kinase assays were performed by Reaction Biology (Malvern, Pa.). Kinome profiling of centrinone and centrinone-B was performed by DiscoveRx (San Diego, Calif.).

Assay [1] deals with full-length mouse Plk4-YFP. Description: Plk4 stabilization assay, Plk4-YFP DLD-1 cells. The class given is cell-based, human. The settings on record: 25 nM or 100 nM, 24 hours. Here is the method:
Plk4 stabilization assay. Expression was induced in Plk4-YFP DLD-1 cells using 1 μg/ml doxycycline. At the same time, cells were treated with the indicated concentrations of compounds. Cells were incubated for 24 hours before harvesting for Western blotting (see below).
Western blotting. […] Cell extracts were stored at −80° C. until use.

Assay [2] deals with Xenopus multiciliated cells. The experiment in a line: Multiciliation assay in Xenopus embryos. The class given is in vivo. Here is the method:
Multiciliation assay in Xenopus embryos. Xenopus embryos were obtained by in vitro fertilization using standard protocols (49) approved by the Northwestern University Institutional Animal Care and Use Committee. Fertilized Xenopus embryos were injected with mRNA encoding the centriole marker Centrin4-GFP (333 pg/embryo) and a Dexamethasone-inducible Multicilin (hGR 3′MCI; 160 pg/embryo) (50, 51). […] Embryos were treated for 13 hours at room temperature, fixed in 4% paraformaldehyde and treated with the actin stain phalloidin. Confocal image stacks were collected using a Nikon AIR microscope and centriole numbers were manually quantified in Nikon Elements software. For each condition, centriole numbers were quantified from approximately 100 cells from at least 3 embryos.

For another assay, the target named is T2, JAK2 (Homo sapiens, UniProt O60674).
T2 construct: Reaction Biology (Malvern, Pa.), contract assay
T2 sequence (O60674 whole entry): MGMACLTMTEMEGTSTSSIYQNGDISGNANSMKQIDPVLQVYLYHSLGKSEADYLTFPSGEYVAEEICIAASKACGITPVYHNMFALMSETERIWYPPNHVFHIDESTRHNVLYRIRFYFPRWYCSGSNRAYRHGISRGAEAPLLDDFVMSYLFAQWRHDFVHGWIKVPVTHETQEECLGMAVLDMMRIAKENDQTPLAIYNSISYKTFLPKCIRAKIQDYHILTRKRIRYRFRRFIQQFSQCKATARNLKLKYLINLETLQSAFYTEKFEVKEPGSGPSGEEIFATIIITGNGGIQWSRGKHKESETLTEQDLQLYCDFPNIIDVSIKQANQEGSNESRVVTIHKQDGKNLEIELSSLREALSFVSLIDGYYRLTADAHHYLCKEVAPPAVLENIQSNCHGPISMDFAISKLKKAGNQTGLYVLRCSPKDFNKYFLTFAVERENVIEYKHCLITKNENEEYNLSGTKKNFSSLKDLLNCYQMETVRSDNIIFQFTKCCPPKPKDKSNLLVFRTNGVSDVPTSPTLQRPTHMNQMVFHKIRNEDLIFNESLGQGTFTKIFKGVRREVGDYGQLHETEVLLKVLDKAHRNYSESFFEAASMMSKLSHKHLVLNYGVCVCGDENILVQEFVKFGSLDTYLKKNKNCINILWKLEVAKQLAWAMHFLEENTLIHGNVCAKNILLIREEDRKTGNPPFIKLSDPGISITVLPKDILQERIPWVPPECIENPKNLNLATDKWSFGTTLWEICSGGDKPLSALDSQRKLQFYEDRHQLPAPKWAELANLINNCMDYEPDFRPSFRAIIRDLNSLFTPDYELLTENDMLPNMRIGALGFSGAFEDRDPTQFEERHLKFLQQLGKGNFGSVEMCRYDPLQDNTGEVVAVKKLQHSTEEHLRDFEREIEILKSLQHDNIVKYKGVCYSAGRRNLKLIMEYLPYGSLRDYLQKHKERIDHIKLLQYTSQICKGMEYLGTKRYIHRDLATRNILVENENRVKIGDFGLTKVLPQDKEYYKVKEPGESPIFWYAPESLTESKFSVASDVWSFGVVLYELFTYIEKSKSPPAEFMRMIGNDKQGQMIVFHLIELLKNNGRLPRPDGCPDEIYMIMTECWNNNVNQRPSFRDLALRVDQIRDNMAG
Description: Radiometric kinase assay, off-target JAK2. The class given is biochemical. Particulars: off-target from DiscoveRx kinome profiling. As to the method:
as §2

The target in another assay is T3, LRRK2 (Homo sapiens, UniProt Q5S007).
T3 construct: Reaction Biology (Malvern, Pa.), contract assay
T3 sequence (Q5S007 whole entry): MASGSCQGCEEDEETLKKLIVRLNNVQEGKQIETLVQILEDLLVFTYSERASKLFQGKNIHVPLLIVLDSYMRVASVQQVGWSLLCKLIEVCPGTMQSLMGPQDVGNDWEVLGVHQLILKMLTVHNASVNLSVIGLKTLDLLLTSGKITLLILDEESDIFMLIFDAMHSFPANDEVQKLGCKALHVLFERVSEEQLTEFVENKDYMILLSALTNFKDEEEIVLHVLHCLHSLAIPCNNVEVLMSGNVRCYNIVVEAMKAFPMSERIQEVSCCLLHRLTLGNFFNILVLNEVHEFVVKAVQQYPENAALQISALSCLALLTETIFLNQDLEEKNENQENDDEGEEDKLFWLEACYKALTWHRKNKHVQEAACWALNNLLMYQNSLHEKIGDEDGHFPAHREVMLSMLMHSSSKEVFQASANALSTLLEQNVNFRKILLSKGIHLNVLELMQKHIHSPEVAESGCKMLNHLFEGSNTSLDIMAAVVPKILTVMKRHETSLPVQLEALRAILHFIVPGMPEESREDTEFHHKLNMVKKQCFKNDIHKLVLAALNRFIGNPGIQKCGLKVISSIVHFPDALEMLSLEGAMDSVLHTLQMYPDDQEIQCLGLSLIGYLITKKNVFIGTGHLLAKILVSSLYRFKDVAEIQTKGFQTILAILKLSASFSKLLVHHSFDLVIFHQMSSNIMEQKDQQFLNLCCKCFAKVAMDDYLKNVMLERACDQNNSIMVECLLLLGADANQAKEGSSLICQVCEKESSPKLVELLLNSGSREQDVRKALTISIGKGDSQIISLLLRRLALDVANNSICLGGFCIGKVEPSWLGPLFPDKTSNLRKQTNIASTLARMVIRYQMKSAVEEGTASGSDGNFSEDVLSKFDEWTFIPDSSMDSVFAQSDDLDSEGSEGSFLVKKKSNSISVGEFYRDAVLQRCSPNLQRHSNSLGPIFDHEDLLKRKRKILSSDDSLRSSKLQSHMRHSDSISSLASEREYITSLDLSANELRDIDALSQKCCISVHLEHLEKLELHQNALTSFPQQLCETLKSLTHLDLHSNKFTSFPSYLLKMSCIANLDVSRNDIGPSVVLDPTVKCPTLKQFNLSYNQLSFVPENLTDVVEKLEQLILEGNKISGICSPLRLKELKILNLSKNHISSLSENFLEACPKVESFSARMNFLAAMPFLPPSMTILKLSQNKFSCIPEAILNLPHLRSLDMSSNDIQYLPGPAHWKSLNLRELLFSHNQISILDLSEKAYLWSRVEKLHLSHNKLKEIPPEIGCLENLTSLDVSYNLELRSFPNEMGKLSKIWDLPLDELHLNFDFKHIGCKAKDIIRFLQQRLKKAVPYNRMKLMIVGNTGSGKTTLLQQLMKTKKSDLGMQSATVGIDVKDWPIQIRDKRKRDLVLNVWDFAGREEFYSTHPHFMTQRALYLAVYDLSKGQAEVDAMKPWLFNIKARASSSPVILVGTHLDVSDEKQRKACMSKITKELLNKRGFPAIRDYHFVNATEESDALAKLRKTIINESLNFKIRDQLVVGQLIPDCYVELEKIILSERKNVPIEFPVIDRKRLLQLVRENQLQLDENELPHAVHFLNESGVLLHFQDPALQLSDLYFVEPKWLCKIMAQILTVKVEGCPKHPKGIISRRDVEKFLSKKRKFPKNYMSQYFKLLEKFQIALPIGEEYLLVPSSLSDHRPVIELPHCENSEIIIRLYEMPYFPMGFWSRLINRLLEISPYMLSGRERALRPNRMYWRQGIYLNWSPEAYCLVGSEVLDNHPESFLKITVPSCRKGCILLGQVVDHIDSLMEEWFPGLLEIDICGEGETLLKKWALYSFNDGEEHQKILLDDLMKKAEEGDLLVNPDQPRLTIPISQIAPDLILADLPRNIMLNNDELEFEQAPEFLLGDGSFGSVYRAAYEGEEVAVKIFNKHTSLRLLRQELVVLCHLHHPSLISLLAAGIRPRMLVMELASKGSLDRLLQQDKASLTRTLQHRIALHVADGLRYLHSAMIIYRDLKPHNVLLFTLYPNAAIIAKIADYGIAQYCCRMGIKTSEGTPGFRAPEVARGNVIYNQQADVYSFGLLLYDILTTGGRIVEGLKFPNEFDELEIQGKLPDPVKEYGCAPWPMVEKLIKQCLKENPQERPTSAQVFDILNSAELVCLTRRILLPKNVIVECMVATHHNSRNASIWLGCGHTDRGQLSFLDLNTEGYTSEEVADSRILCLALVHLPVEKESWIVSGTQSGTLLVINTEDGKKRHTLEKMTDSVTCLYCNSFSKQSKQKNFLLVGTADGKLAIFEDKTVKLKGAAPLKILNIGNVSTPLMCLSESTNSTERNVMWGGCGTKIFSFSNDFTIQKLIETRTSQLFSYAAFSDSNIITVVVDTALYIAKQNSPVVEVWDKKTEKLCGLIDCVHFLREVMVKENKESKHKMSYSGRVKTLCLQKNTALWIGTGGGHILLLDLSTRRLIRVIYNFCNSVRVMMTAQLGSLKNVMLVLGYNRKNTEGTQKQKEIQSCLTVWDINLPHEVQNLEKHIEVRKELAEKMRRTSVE
The experiment in a line: Radiometric kinase assay, off-target LRRK2. The class given is biochemical. The settings on record: off-target from DiscoveRx kinome profiling. As to the method: as §2

The next assay has as its system RPE1 cells. The experiment in a line: Passaging assay and flow cytometry, RPE1. The class given is cell-based, human. As to the method: Passaging assays. Cells were seeded into 10 cm tissue culture plates at 150,000 (HeLa, NIH/3T3 and RPE1) or 200,000 cells/plate (primary fibroblasts). Compounds were added at the indicated concentrations. At 4-day intervals, cells were harvested, counted using a TC10 cell counter, and re-seeded into new plates at the densities above. Results are from 2 independent experiments.
Flow cytometry. Cells were seeded into 15 cm tissue culture plates such that each plate was 50-80% confluent at the time of harvesting. Cells were de-adhered by trypsinization and pelleted in 15 ml tubes by centrifugation. Each pellet was resuspended in 0.3 mL PBS, and 0.7 mL ice-cold 100% ethanol was added to the tube while gently vortexing. Fixed cells were stored at 4° C. for up to 2 weeks. For DNA content analysis, fixed cells were pelleted, washed twice with PBS, and resuspended in 0.5 mL PBS+2% BSA and Alexa488-conjugated anti-p-H3(Ser10) antibody. Samples were incubated for 1 hour at 4° C., then washed twice with PBS+2% BSA. Pellets were resuspended in 1 mL PBS+2% BSA, 10 μg/ml propidium iodide (Sigma-Aldrich), 500 µg/ml RNAse A (Thermo Scientific). Samples were incubated at 37° C. for 30 minutes, then transferred to 12×75 mm tubes for analysis. Data were acquired using FACSDiva software on a LSR II flow cytometer (BD Biosciences). 50,000 cells were analyzed per condition. Cell cycle fitting was performed using ModFit LT (Verity Software House).
For orientation: In flow cytometry, cells or beads pass a laser one at a time.

A further assay relates to NIH/3T3 cells. Description: Microtubule regrowth assay, NIH/3T3. The class given is cell-based, mouse. The settings on record: NIH/3T3, 5 minutes after washout. As to the method: Microtubule regrowth assay. […] Cells were seeded onto coverslips in 12-well plates and treated with 16 μM nocodazole for 4 hours to depolymerize microtubules. Wells were washed 6 times with PBS to remove the nocodazole, and fresh, pre-warmed medium was added to each well. After 5 minutes of recovery, cells were fixed with 100% methanol (−20° C., 5 minutes) and stained with antibodies against γ-tubulin and α-tubulin. Coverslips were mounted onto slides and imaged on a DeltaVision microscope (Applied Precision) with a 60×1.42 NA PlanApo objective and CoolSnap camera (Photometrics). Image deconvolution was performed in softWoRx (Applied Precision) and subsequent processing was performed in ImageJ (NIH).

Another assay deals with centrosomes in cells. Description: Cellular centrosome depletion (cell line not stated). The settings on record: cellular activity, FIG. 1A. The class given is cell-based. As to the method: Centriole depletion assay for compound screening. 1,500 NIH/3T3 cells or 3,500 HCT116 cells were seeded into 96-well SCREENSTAR microplates (Greiner) and treated with inhibitors in dose response, added from DMSO stocks. After 3 days, cells were fixed directly in the wells with 100% methanol (−20° C., 10 minutes). The fixed cells were washed with PBS and stained with primary antibodies against γ-tubulin and, for a subset of compounds, Cep192. Cells were then stained with Alexa-488 donkey anti-mouse and Alexa-647 goat anti-rabbit secondary antibodies. Cells were imaged using either a Model 500 LumaScope (Etaluma) or an EVOS FL (Advanced Microscopy Group/Life Technologies), and centriole depletion was determined by scoring the percentage of cells without visible γ-tubulin/Cep192 foci.

For another assay, the system named is HeLa cells. Description: Proliferation assay, HeLa. The class given is cell-based, human. As to the method: as §1

Read-outs that look alike come from different tables or passages of the source. Some results are limits rather than exact numbers.

T1 sequence (Q96SB4 whole entry): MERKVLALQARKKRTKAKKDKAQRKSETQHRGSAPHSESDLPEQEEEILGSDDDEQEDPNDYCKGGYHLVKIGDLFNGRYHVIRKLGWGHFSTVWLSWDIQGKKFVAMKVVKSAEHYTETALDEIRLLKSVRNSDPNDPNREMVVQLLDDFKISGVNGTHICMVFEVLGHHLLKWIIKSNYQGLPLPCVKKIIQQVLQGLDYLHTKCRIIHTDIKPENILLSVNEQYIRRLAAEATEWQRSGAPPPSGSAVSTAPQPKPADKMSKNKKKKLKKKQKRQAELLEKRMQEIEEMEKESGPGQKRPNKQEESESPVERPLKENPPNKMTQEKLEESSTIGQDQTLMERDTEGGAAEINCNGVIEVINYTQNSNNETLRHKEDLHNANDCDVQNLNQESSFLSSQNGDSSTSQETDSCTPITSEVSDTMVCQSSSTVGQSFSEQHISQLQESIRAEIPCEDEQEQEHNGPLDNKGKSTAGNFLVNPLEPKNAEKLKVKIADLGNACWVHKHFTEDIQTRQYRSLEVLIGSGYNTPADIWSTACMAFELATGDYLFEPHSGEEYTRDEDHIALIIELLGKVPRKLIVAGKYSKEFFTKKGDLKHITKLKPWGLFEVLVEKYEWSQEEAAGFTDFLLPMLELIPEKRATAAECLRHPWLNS

On to `COc1c(Nc2cc(C)[nH]n2)nc(Sc2ccc(S(=O)(=O)Cc3cccc([N+](=O)[O-])c3F)cc2F)nc1N1CCOCC1` [Centrinone, 2-((2-fluoro-4-((2-fluoro-3-nitrobenzyl)sulfonyl)phenyl)thio)-5-methoxy-N-(5-methyl-1H-pyrazol-3-yl)-6-morpholinopyrimidin-4-amine], for which, in the assay on panel of 19 cell lines, the proliferation after treatment entry is reported as “continued to proliferate”. The values for the Ki at SRPK1, on JAK2 and at LRRK2 were above 150 nM, above 150 nM and 2.08 nM, respectively. Moreover, the Plk4-YFP stabilization result in assay [1] is “more substantial stabilization”. In addition, the “centriole number in multiciliated cells” value in assay [2] is on record as “dramatically reduced centriole numbers”; in assay [2] (listed as centrinone) it was “reduced centriole number”. Moreover, the “cell cycle after centrosome depletion” value with RPE1 cells (RPE1, 12-day passaging assay and flow cytometry) was “cell cycle arrest in G1”. Also, in the assay on RPE1 cells (RPE1, addition Day 0, washout Day 8), the proliferation after washout entry is recorded as “did not”. Also, the “microtubule organization after nocodazole washout” value in the assay on NIH/3T3 cells is reported as “short microtubules form throughout the cytoplasm”. In addition, in the assay with centrosomes in cells, the centrosome depletion at was determined as 100 nM. Moreover, the proliferation versus controls entry in the assay on HeLa cells (HeLa, first two days after addition) was “identical to controls”. Besides, the “cell death per generation explaining reduced proliferation rate” value in the assay with HeLa cells (centrosome-less HeLa, theoretical curves versus measurements) worked out at 25%.
